Data from paper PMC2970562, “High-Affinity Inhibitors of Human NAD^+-Dependent 15-Hydroxyprostaglandin Dehydrogenase: Mechanisms of Inhibition and Structure-Activity Relationships” (PLoS ONE, 2010).
Read-outs that look alike come from different tables or passages of the source. One block for each molecule: values may come before it.

Columns and labels:
[1] = system: recombinant human placental 15-PGDH; settings: cited from earlier work; for potency as inhibitor of 15-PGDH: in words ref 22
human 15-PGDH [2] = molecular target: T1, human 15-PGDH (Homo sapiens, UniProt P15428); assay: qHTS and 24-point re-test: fluorescence assay of NAD+ reduction to NADH on PGE2 oxidation (PubChem AID 894); assay type: biochemical; settings: read-out: qHTS IC50
T1 construct: comprising residues 3–256 of the human HPGD gene (GenBank identifier: 1203982); His6 (GHHHHHH, behind the TEV site) (C, cleaved yes); made in house; host or cells: E. coli BL21(DE3)-R3
T1 sequence (P15428 3-256): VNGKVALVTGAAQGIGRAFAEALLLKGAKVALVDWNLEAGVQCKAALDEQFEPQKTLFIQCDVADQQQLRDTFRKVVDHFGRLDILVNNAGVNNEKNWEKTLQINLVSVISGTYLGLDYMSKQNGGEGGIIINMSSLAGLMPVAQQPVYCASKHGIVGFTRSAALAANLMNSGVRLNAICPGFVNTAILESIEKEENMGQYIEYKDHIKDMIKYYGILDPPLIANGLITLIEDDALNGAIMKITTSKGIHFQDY
Procedure: The assay was miniaturized to a 4-µL volume in 1536-well format: enzyme (3 µL) was dispensed first, followed by a pintool transfer of library compounds dissolved in DMSO. After equilibration, a substrate dispense (1 µL) initiated the enzymatic reaction (see Materials and Methods, for detailed protocol description). […] Hits associated with low-efficacy (<40% maximum inhibition), incomplete curves, as well as those displaying only a single-point inhibition at the top concentration tested were eliminated from further consideration. Similarly, the collection of real-time kinetic data allowed the autofluorescence of each compound to be evaluated by comparing the initial fluorescence read at top concentration with the mean value of uninhibited assay controls: compounds whose top-concentration initial well fluorescence exceeded six standard deviations over the mean were flagged as potential autofluorescent artifacts, [28] (see example in supplementary information Figure S1E). The complete screening and followup results are available in PubChem (PubChem Assay ID 894).
The enzymatic reaction was performed in 50 mM Tris-HCl pH 8.0, containing 0.01% Tween 20. […] The high-throughput screen was performed on a fully integrated robotic system (Kalypsys Inc, San Diego, CA) as described elsewhere. Library compounds, arrayed as seven-point inter-plate concentration series, were screened from the lowest (3.5 nM) to the highest (57.5 µM) concentration, with plates containing DMSO only, serving to note any systematic drifts in the signal, interspersed evenly throughout the screen (approximately every 50 plates). Briefly, 3 µL of reagents were dispensed into 1536-well Greiner black solid-bottom assay plates using integrated nanoliter solenoid-technology dispensers. Compounds and controls (23 nL) were transferred via Kalypsys pintool equipped with 1,536-pin array (10-nL slotted pins; V&P Scientific, Palo Alto, CA). After a 15-minute incubation (to allow for interaction between compound and enzyme), a 1-µL substrate addition step initiated the reaction. Kinetic data were collected on a ViewLux High-throughput CCD imager (Perkin-Elmer) equipped with standard UV fluorescence optics (exc. 340 nm, em. 450 nm).
Starting fluorescence intensity and the change in fluorescence over the two-minute initial rate period were recorded for every well. Screening data were normalized against no-enzyme (64 wells, columns 3 and 4) and no-compound (32 wells located in column 1) controls, and concentration-response relationships were derived as described previously. A four-parameter Hill equation [47] was fitted to the concentration-response data using publicly available algorithms (http://www.ncgc.nih.gov/pub/openhts/curvefit/).

human 15-PGDH [3] = molecular target: T1, human 15-PGDH; assay: Differential scanning fluorimetry (DSF), thermal stabilization; assay type: binding; settings: for ∆Tm [°C] NAD+: with 200 µM NAD+; for ∆Tm [°C] NAD+ / ∆Tm [°C] NADH / ∆Tm [°C] apo: 1 µM protein, compound 50 or 250 µM, N/A = no unfolding transition observed in DSF; for ∆Tm [°C] NADH: with 200 µM NADH; for ∆Tm [°C] apo: without cofactor
Procedure: A correlation between the ΔTm and the inhibitory potency has been shown in a number of protein-ligand systems, particularly for kinases [32]–[34].
Studies to assess the thermal stability of human 15-PGDH in presence of compounds were performed as described previously, with variations. Briefly, the protein was diluted to a final assay concentration of 1 µM in 100 mM Tris buffer pH 8.0, containing 0.01% Tween-20 and 1∶1000 SYPRO orange dye (Invitrogen). […] Compounds were added at a ratio of 1∶5 from appropriate stock solutions in 10% (v/v) DMSO to comprise either 50 or 250 µM final concentrations. Heat denaturation curves were recorded using a RT-PCR instrument (Mx3005p, Agilent) applying a temperature gradient of 2°C/min. […] 2.5 (ftp://ftp.sgc.ox.ac.uk/pub/biophysics) and PRISM 5.0 (GraphPad Software, Inc.).

ALDH1A1 = molecular target: T2, ALDH1A1 (Homo sapiens, UniProt P00352); assay: Selectivity screen, aldehyde dehydrogenase 1 (PubChem Assay ID 1030); assay type: biochemical
T2 sequence (P00352 1-501): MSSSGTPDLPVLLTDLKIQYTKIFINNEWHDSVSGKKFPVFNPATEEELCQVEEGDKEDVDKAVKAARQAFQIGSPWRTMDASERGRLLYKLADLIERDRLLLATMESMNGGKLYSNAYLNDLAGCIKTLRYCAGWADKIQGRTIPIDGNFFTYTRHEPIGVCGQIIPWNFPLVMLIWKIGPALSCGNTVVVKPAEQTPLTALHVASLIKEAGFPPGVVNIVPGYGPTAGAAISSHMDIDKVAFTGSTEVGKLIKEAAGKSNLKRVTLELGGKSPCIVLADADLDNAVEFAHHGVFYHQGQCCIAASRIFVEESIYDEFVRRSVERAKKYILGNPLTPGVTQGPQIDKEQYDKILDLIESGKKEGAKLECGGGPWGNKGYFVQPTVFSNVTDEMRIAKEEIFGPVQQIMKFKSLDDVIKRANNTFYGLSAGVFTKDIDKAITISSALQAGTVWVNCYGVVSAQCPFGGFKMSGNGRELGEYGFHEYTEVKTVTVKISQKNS
Procedure: The list also includes two SDR enzymes, hydroxyacyl dehydrogenase (HADH2, also known as type-10 hydroxysteroid dehydrogenase, HSD17β10; PubChem Assay ID 886) and type-4 hydroxysteroid dehydrogenase (HSD17β4; PubChem Assay ID 893), and a medium-chain dehydrogenase/reductase (MDR), aldehyde dehydrogenase 1 (ALDH1A1; PubChem Assay ID 1030), each of which was tested using a similar experimental protocol to that used for 15-PGDH.

human 15-PGDH [4] = molecular target: T1, human 15-PGDH; assay: Substrate (PGE2) and cofactor (NAD+) titrations, mechanism of action, global fitting; assay type: biochemical; settings: for Competitive (CM), fit residual Chi^2 value / Mixed-mode (MM), fit residual Chi^2 value / Noncompetitive (NM), fit residual Chi^2 value / Uncompetitive (UM), fit residual Chi^2 value: global fitting; for Titration of NAD^+ K m / Titration of NAD^+ V max [µmol/(min×mg)] / Titration of NAD^+ k cat/K m[×10^6] / Titration of NAD^+ k cat[1/sec]: 30 µM PGE2
Procedure: Kinetic studies were performed in 100 mM Tris buffer pH 8.0, containing 0.01% Tween-20 and 10 nM 15-PGDH enzyme. […] All inhibitor compounds were dissolved in 10% (v/v) DMSO at varying concentrations from which they were applied at 1∶5 ratio (resulting in a final concentration of 2% (v/v) DMSO in all assays). For each experiment an aliquot of purified enzyme was thawed freshly and pre-diluted to 10 µM in buffer I (5 mM Tris/HCl, pH 8.0, 150 mM NaCl, 0.01% Tween-20). All experiments were performed in white 384-well PCR microplates (Bio-Rad Laboratories, Inc.) in final assay volumes of 20 µL. Twelve-point compound titrations were set up from serially diluted stock solutions in 10% (v/v) DMSO. […] The initial rates recorded in compound titrations were plotted against -log[compound], and non-linear regression (Levenberg-Marquardt) fitting of the dose-response curve to the Hill equation [47] was performed to derive the IC50, using PRISM 5.0 (GraphPad Software, Inc.). For substrate/cofactor titrations, curves with initial rates plotted against the concentration of substrate or cofactor were fitted to the Michaelis-Menten equation, to derive maximal activities, V max, and Michaelis constants, K m. Fitting qualities were judged from the goodness of fit (R^2>0.98).

Structure (SMILES): COc1ccc2c(c1)c(CC(=O)O)c(C)n2C(=O)c1ccc(Cl)cc1 [indomethacin]
potency as inhibitor of 15-PGDH [1]: micromolar potencies

Structure (SMILES): CC1(COc2ccc(CC3SC(=O)NC3=O)cc2)CCCCC1 (stereo not shown) [Ciglitazone]
IC50 ([1]; recombinant human placental 15-PGDH ref 22): 2700 nM

Structure (SMILES): CCOC(=O)c1ccc(N=Nc2ccc(O)c(CC(=O)O)c2)cc1 [CAY10397]
Ki ([1]; human 15-PGDH ref 24): 110 nM

Structure (SMILES): CC1=C(CC(=O)O)c2cc(F)ccc2/C1=C\c1ccc([S+](C)[O-])cc1 (stereo not shown) [sulindac]
potency as inhibitor of 15-PGDH [1]: micromolar potencies

IC50 (human 15-PGDH [2]; potency in 24-point titrations on re-test, 20 nM 15-PGDH, 1 mM NAD+, 30 µM PGE2, pH 8.0): 251 nM
∆Tm [°C] NAD+ (human 15-PGDH [3]): 3.0 °C
∆Tm [°C] NADH (human 15-PGDH [3]): 6.1 °C
∆Tm [°C] apo (human 15-PGDH [3]): -0.1 °C
Structure (SMILES): O=C(c1ccc(N2C(=O)C3CC=C(Cl)CC3C2=O)cc1)N1CCCCC1 (stereo not shown) [Compound 1]

response against ALDH1A1 (ALDH1A1; in words): flat response
IC50 (ALDH1A1; top concentration 57.5 µM, PubChem Assay ID 1030, read-out: IC50/nM ALDH1A1): > 57500 nM
Sum-of-squares F-test p, UM vs. MM (human 15-PGDH [4]; NAD^+ titration): UM vs. MM: p = 0.1058
Sum-of-squares F-test p, CM vs. MM (human 15-PGDH [4]; PGE2 titration): CM vs. MM:p = 0.0001
effect on the V max (human 15-PGDH [4]; PGE2 titration, in words): almost no effect
increase in the K m (human 15-PGDH [4]; PGE2 titration, inhibitor 50 nM): 3 fold
Preferred mode of inhibition (human 15-PGDH [4]; PGE2 titration, rejection threshold p = 0.05): MM (MM, mixed-mode inhibition)
Competitive (CM), fit residual Chi^2 value (human 15-PGDH [4]; NAD^+ titration): 0.9507
Mixed-mode (MM), fit residual Chi^2 value (human 15-PGDH [4]; NAD^+ titration): 0.9841
Noncompetitive (NM), fit residual Chi^2 value (human 15-PGDH [4]; NAD^+ titration): 0.9834
Uncompetitive (UM), fit residual Chi^2 value (human 15-PGDH [4]; NAD^+ titration): 0.9837
Competitive (CM), fit residual Chi^2 value (human 15-PGDH [4]; PGE2 titration): 0.9845
Mixed-mode (MM), fit residual Chi^2 value (human 15-PGDH [4]; PGE2 titration): 0.9866
Noncompetitive (NM), fit residual Chi^2 value (human 15-PGDH [4]; PGE2 titration): 0.9800
Uncompetitive (UM), fit residual Chi^2 value (human 15-PGDH [4]; PGE2 titration): 0.9742
mode of inhibition with respect to the cofactor NAD+ (human 15-PGDH [4]; in words): uncompetitive
mode of inhibition with respect to the substrate PGE2 (human 15-PGDH [4]; in words): competitive inhibition
Titration of PGE2 K m (human 15-PGDH [4]; inhibitor 10.0 nM): 7.5 ± 0.5 µM
Titration of PGE2 V max[µmol/(min×mg)] (human 15-PGDH [4]; inhibitor 10.0 nM): 29.0 µmol/min/mg
Titration of PGE2 k cat/K m[×10^6] (human 15-PGDH [4]; inhibitor 10.0 nM): 1.8 ×10^6
Titration of NAD^+ K m (human 15-PGDH [4]; inhibitor 10.0 nM): 17.0 ± 0.8 µM
Titration of NAD^+ V max [µmol/(min×mg)] (human 15-PGDH [4]; inhibitor 10.0 nM): 21.1 µmol/min/mg
Titration of NAD^+ k cat/K m[×10^6] (human 15-PGDH [4]; inhibitor 10.0 nM): 0.6 ×10^6
Titration of NAD^+ k cat[1/sec] (human 15-PGDH [4]; inhibitor 10.0 nM): 10.3 ± 0.1 s⁻¹
Titration of PGE2 K m (human 15-PGDH [4]; inhibitor 50.0 nM): 13.5 ± 1.3 µM
Titration of PGE2 V max[µmol/(min×mg)] (human 15-PGDH [4]; inhibitor 50.0 nM): 25.6 µmol/min/mg
Titration of PGE2 k cat/K m[×10^6] (human 15-PGDH [4]; inhibitor 50.0 nM): 0.9 ×10^6
Titration of PGE2 k cat[1/sec] (human 15-PGDH [4]; inhibitor 50.0 nM): 12.4 ± 0.3 s⁻¹
Titration of NAD^+ K m (human 15-PGDH [4]; inhibitor 50.0 nM): 11.1 ± 1.2 µM
Titration of NAD^+ V max [µmol/(min×mg)] (human 15-PGDH [4]; inhibitor 50.0 nM): 10.2 µmol/min/mg
Titration of NAD^+ k cat/K m[×10^6] (human 15-PGDH [4]; inhibitor 50.0 nM): 0.4 ×10^6
Titration of NAD^+ k cat[1/sec] (human 15-PGDH [4]; inhibitor 50.0 nM): 5.0 ± 0.1 s⁻¹
ΔTm in the presence of NAD+ (human 15-PGDH [3]): 12.2±0.1 °C
ΔTm in the presence of NADH (human 15-PGDH [3]): 2.9±0.5 °C
∆Tm [°C] NAD+ (human 15-PGDH [3]): 12.2 °C
∆Tm [°C] NADH (human 15-PGDH [3]): 2.9 °C
∆Tm [°C] apo (human 15-PGDH [3]): -1.2 °C
Structure (SMILES): N#Cc1ccccc1CSc1nc2cc(Br)c[nH]c-2n1 [Compound 61]

IC50 (human 15-PGDH [2]): 89 nM
∆Tm [°C] NAD+ (human 15-PGDH [3]): 7.1 °C
∆Tm [°C] NADH (human 15-PGDH [3]): 10.6 °C
∆Tm [°C] apo (human 15-PGDH [3]): -0.1 °C
Structure (SMILES): O=C(c1ccc(COc2ccccc2Br)cc1)N1CCCCC1 [Compound 7]
